Reference: ChEMBL document CHEMBL1201862, “PubChem BioAssay data set” (2004)
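Briefly, cells in 96-well plates were exposed to five compound concentrations for 48 h, and endpoints were estimated by linear interpolation. Here, GI50 denotes the concentration required for 50% inhibition of growth.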 Activity calls are given as the source filed them. No stated cut-off is given here; in the data, active = GI50 up to about 1.1 µM and inactive = higher.

What was measured:
Experiment in all cases: growth of human tumour cells (NCI), 48 h
SR = test system: SR
ACHN = test system: ACHN
HCT-15 = test system: HCT-15
UACC-257 = test system: UACC-257
SW-620 = test system: SW-620
A549 = test system: A549
HL-60 = test system: HL-60
786-0 = test system: 786-0
SNB-19 = test system: SNB-19
SN12C = test system: SN12C
M19-MEL = test system: M19-MEL
SK-OV-3 = test system: SK-OV-3
UACC-62 = test system: UACC-62
NCI-H23 = test system: NCI-H23
SK-MEL-5 = test system: SK-MEL-5
K562 = test system: K562
HOP-18 = test system: HOP-18
OVCAR-3 = test system: OVCAR-3
SF-539 = test system: SF-539
HT-29 = test system: HT-29
KM-20L2 = test system: KM-20L2
SNB-75 = test system: SNB-75
SF-268 = test system: SF-268
TK-10 = test system: TK-10
DMS-114 = test system: DMS-114
Malme-3M = test system: Malme-3M
SK-MEL-2 = test system: SK-MEL-2
M14 = test system: M14
EKVX = test system: EKVX
NCI-H226 = test system: NCI-H226
KM12 = test system: KM12
OVCAR-4 = test system: OVCAR-4
SNB-78 = test system: SNB-78
HOP-62 = test system: HOP-62
HCC 2998 = test system: HCC 2998
LOX IMVI = test system: LOX IMVI
A498 = test system: A498
XF498 = test system: XF498
HCT-116 = test system: HCT-116
DMS-273 = test system: DMS-273
SF-295 = test system: SF-295
HOP-92 = test system: HOP-92
IGROV-1 = test system: IGROV-1
SK-MEL-28 = test system: SK-MEL-28
NCI-H522 = test system: NCI-H522
NCI-H460 = test system: NCI-H460
CAKI-1 = test system: CAKI-1
CCRF-CEM = test system: CCRF-CEM
RPMI-8226 = test system: RPMI-8226
COLO 205 = test system: COLO 205
OVCAR-5 = test system: OVCAR-5
U-251 = test system: U-251
DLD-1 = test system: DLD-1
OVCAR-8 = test system: OVCAR-8
RXF 393 = test system: RXF 393
MOLT-4 = test system: MOLT-4
LXFL 529 = test system: LXFL 529
UO-31 = test system: UO-31

COc1ccccc1NC(=O)CSC(N)=O
GI50 (SR): 25.8 µM (inactive)
GI50 (ACHN): 42.3 µM (inactive)
GI50 (HCT-15): 42.8 µM
GI50 (UACC-257): 62.2 µM (inactive)
GI50 (SW-620): 32.2 µM (inactive)
GI50 (A549): 72.6 µM (inactive)
GI50 (HL-60): 0.349 µM (active)
GI50 (786-0): 19.1 µM (inactive)
GI50 (SNB-19): > 100 µM (inactive)
GI50 (SN12C): 62.2 µM (inactive)
GI50 (M19-MEL): 29.2 µM (inactive)
GI50 (SK-OV-3): > 100 µM (inactive)
GI50 (UACC-62): 25.8 µM (inactive)
GI50 (NCI-H23): 69.3 µM (inactive)
GI50 (SK-MEL-5): 47.8 µM (inactive)
GI50 (K562): 46 µM (inactive)
GI50 (HOP-18): 82.8 µM (inactive)
GI50 (OVCAR-3): 57.8 µM (inactive)
GI50 (SF-539): 34 µM (inactive)
GI50 (HT-29): 47.2 µM (inactive)
GI50 (KM-20L2): > 100 µM (inactive)
GI50 (SNB-75): 30 µM (inactive)
GI50 (SF-268): 53.8 µM (inactive)
GI50 (TK-10): > 100 µM (inactive)
GI50 (DMS-114): 46.2 µM (inactive)
GI50 (Malme-3M): 43 µM (inactive)
GI50 (SK-MEL-2): 22.9 µM (inactive)
GI50 (M14): 45.4 µM (inactive)
GI50 (EKVX): 60.1 µM (inactive)
GI50 (NCI-H226): 39.2 µM (inactive)
GI50 (KM12): 49.5 µM (inactive)
GI50 (OVCAR-4): > 100 µM (inactive)
GI50 (SNB-78): 50.4 µM (inactive)
GI50 (HOP-62): 24.7 µM (inactive)
GI50 (HCC 2998): > 100 µM (inactive)
GI50 (LOX IMVI): 36.4 µM (inactive)
GI50 (A498): > 100 µM (inactive)
GI50 (XF498): 30.8 µM (inactive)
GI50 (HCT-116): 18.8 µM (inactive)
GI50 (DMS-273): 34.4 µM (inactive)
GI50 (SF-295): 38.4 µM (inactive)
GI50 (HOP-92): > 100 µM (inactive)
GI50 (IGROV-1): 66.5 µM (inactive)
GI50 (SK-MEL-28): 48.1 µM (inactive)
GI50 (NCI-H522): 33.4 µM (inactive)
GI50 (NCI-H460): 32.7 µM (inactive)
GI50 (CAKI-1): 33.6 µM (inactive)
GI50 (CCRF-CEM): 12.9 µM (inactive)
GI50 (RPMI-8226): 39.4 µM (inactive)
GI50 (COLO 205): > 100 µM (inactive)
GI50 (OVCAR-5): > 100 µM (inactive)
GI50 (U-251): 25.6 µM (inactive)
GI50 (DLD-1): 42.1 µM (inactive)
GI50 (OVCAR-8): 68.2 µM (inactive)

Cc1cc(OCC(O)CO)ccc1-c1ccccc1 (centres undefined)
GI50 (SR): > 100 µM (inactive)
GI50 (ACHN): > 100 µM (inactive)
GI50 (HCT-15): 37.2 µM
GI50 (UACC-257): 52.5 µM (inactive)
GI50 (SW-620): 6.65 µM (inactive)
GI50 (A549): > 100 µM (inactive)
GI50 (HL-60): 61.1 µM (inactive)
GI50 (786-0): > 100 µM (inactive)
GI50 (SNB-19): > 100 µM (inactive)
GI50 (SN12C): > 100 µM (inactive)
GI50 (M19-MEL): > 100 µM (inactive)
GI50 (UACC-62): > 100 µM (inactive)
GI50 (NCI-H23): > 100 µM (inactive)
GI50 (SK-MEL-5): > 100 µM (inactive)
GI50 (K562): > 100 µM (inactive)
GI50 (HOP-18): > 100 µM (inactive)
GI50 (OVCAR-3): > 100 µM (inactive)
GI50 (HT-29): 70.1 µM (inactive)
GI50 (KM-20L2): > 100 µM (inactive)
GI50 (SNB-75): > 100 µM (inactive)
GI50 (SF-268): > 100 µM (inactive)
GI50 (TK-10): > 100 µM (inactive)
GI50 (DMS-114): > 100 µM (inactive)
GI50 (Malme-3M): > 100 µM (inactive)
GI50 (SK-MEL-2): > 100 µM (inactive)
GI50 (M14): > 100 µM (inactive)
GI50 (EKVX): 80.2 µM (inactive)
GI50 (NCI-H226): > 100 µM (inactive)
GI50 (KM12): > 100 µM (inactive)
GI50 (OVCAR-4): > 100 µM (inactive)
GI50 (RXF 393): 21.2 µM (inactive)
GI50 (SNB-78): > 100 µM (inactive)
GI50 (HCC 2998): > 100 µM (inactive)
GI50 (A498): 11.4 µM (inactive)
GI50 (MOLT-4): > 100 µM (inactive)
GI50 (XF498): 37.1 µM (inactive)
GI50 (LXFL 529): > 100 µM (inactive)
GI50 (HCT-116): 77.3 µM (inactive)
GI50 (DMS-273): > 100 µM (inactive)
GI50 (HOP-92): 92.5 µM (inactive)
GI50 (IGROV-1): > 100 µM (inactive)
GI50 (SK-MEL-28): > 100 µM (inactive)
GI50 (NCI-H522): > 100 µM (inactive)
GI50 (NCI-H460): > 100 µM (inactive)
GI50 (CAKI-1): > 100 µM (inactive)
GI50 (CCRF-CEM): 35 µM (inactive)
GI50 (COLO 205): 61 µM (inactive)
GI50 (U-251): 54.3 µM (inactive)
GI50 (UO-31): > 100 µM (inactive)
GI50 (OVCAR-8): > 100 µM (inactive)
